{
  "source": "patent US20080014256A1",
  "about": "(priority 2005, published 2008)",
  "key": {"cell monolayer": {"test_system": "cell monolayer", "settings": "pH 6"}, "[1]": {"settings": "cynomolgus monkey, in vivo, 15 mg/kg", "procedure": "(§1) Four male cynomolgus monkeys were used in the study. […] The dosing volume was 10 mL/kg. Blood samples (2 mL per sample) were obtained prior to dosing (0 hr) and at 0.5, 1, 2, 4, 6, 8, 12, 24, 32 and 48 hr after the oral dose. […] Blood samples (2 mL) were obtained pre-dose (0 hr) and at 5 mm., 0.5, 1, 2, 4, 6, 8, 12, 24, 32 and 48 hr post-dose. Blood samples were collected using a stainless steel needle and vacutainer tube containing sodium heparin as the anticoagulant. Blood samples were placed on ice after collection and centrifuged at approximately 4° C. Plasma samples was separated, frozen and stored at approximately −70° C. prior to analysis.\n(§2) Pharmacokinetic parameters were calculated using the pharmacokinetics analysis program WinNonlin, version 2.1 (Scientific Consulting Inc.) from the individual animal concentration vs. time profiles. […] For the purpose of this analysis, no attempt was made to back extrapolate the concentration immediately after the IV bolus dose, rather the concentration at 0 hr (C0, immediately after dosing) was assumed to be equal to the first measured concentration (at 5 minutes, C5min). […] The terminal half-life (t1/2) was determined by 0.693/λ, where λ is the terminal rate constant and is determined by a log-linear fitting of the terminal portion of the concentration-time curve. AUC0-4 was calculated by AUC0-t+Ct/λ, where AUC0-t was the AUC from time 0 to t, the last quantifiable time point and Ct was the last quantifiable concentration. The area under the plasma concentration-time curve from time 0 to t (AUC0-t) was calculated using the linear trapezoidal method. Systemic clearance (CLT) after the iv dose was calculated using the formula of Dose/AUC0-4. The volume of distribution at steady-state (Vdss) was calculated using the formula of MRTiv×CLT, where MRTiv is the mean residence time after iv dosing and equals AUMC0-4/AUC0-4. For the oral dose, Cmax and tmax values were obtained by inspection of the concentration vs. time curves."}, "[2]": {"experiment": "Pharmacokinetics of tigecycline after single oral (gavage) and intravenous dose in 0.9% saline", "procedure": "as §1, §2"}},
  "note": "“And” between values parts separate entries of the source, which are not always exact repeats. Equal entries are not always repeated. Where two headings read alike, the source gives them in different places. Marks after values point to notes of the source that are not given here.",
  "data": [
    {"substance": "Tigecycline", "values": [
      {"measurement": "cell monolayer permeability", "setting": "cell monolayer", "value": 0.04, "unit": "×10⁻⁶ cm/s"},
      {"measurement": "AUC0-t or 0-∞", "setting": "[1]", "value": 18267},
      {"measurement": "AUC0-t or 0-∞", "setting": "[1]; po", "value": 163},
      {"measurement": "AUC0-4", "setting": "[2]; 5 mg/kg iv, animals 1-4 and Mean", "value": 20178, "unit": "ng·h/mL"},
      {"measurement": "Cmax", "setting": "[2]; 15 mg/kg oral (gavage), 0.9% saline, animals 1-4 and Mean", "value": "131 ng/mL and 191 ng/mL and 178 ng/mL"},
      {"measurement": "AUC0-t", "setting": "[2]; 15 mg/kg oral (gavage), t = 2 hr (animals 1, 2, 4) or t = 1 hr (animal 3), individual and Mean", "value": "105^c ng · hr/mL"}
    ]}
  ]
}
